Measurements as given in patent publication US20260256763A1, “Aromatic Amide Derivative, And Preparation Method Therefor And Use Thereof” (Zhejiang Hisun Pharmaceutical Co., Ltd., priority 2023, published 2026).

Tests used:
[1] = Pharmacokinetic testing in mice; format: in vivo; conditions: male, mouse, ICR mice, plasma; for half-life / Cmax: 10 mg/kg, oral administration (10 mg/mL); for half-life: read-out: Half-life period T½ (converted); for Cmax: read-out: Plasma concentration Cmax; for AUC(0-inf): oral administration (10 mg/kg), read-out: Area under the curve AUC0-∞
Experimental: ICR mice were taken as test animals, and intragastrically administered with a control compound AMG650 and compounds 1, 18 and 29 of the present invention, and then drug concentrations in plasma at different moments were determined by an LC/MS/MS method, so as to study pharmacokinetic characteristics of the compounds of the present invention in the mice.
Control compound AMG650, and Compounds 1, 18 and 29.
ICR mice, male, 27.3-30.3 g, purchased from Vital River Laboratory Animal Technology Co., Ltd.
A proper amount of to-be-tested compound was weighed, proper amounts of DMA (N,N-dimethylacetamide), CrEL (polyoxyethylene 35 castor oil) and 5% GS (5% glucose injection) were added in sequence, and the obtained system was evenly mixed by ultrasonic vortex to prepare a 1 mg/mL preparation, wherein DMA, CrEL and 5% GS=10:10:80 (v:v:v).
ICR mice in each to-be-tested compound injection group (9 mice in each group) were fasted overnight and then intragastrically administered with the compound (PO, an administration dosage of the compound was 10 mg/kg and an administration volume of the compound was 10 mL/kg), and were fed 4 hours after administration.
0.25 hours, 0.5 hours, 1 hour, 2 hours, 4 hours, 8 hours, 10 hours and 24 hours before and after administration, about […] of blood was collected through an orbit, and a complete blood sample was placed in an EDTA-K2-containing anticoagulation tube. The collected blood sample was placed on ice, and plasma was centrifugally separated (centrifugation conditions: 1500 g, 10 minutes). The collected plasma was stored at −40~−20° C. before analysis.
A content of the to-be-tested compound in the plasma of the mice after intragastric administration was determined by LC-MS/MS.

OVCAR-3 cells = assay: Inhibition on OVCAR-3 cell proliferation (CellTiter-Glo); format: cell-based; conditions: Homo sapiens, OVCAR-3 cells (TP53 R248Q mutation), 72 hours
Experimental: (§1) Influences of the compounds of the present invention on OVCAR-3 cell proliferation were determined by the following method. OVCAR-3 cells (containing TP53 R248Q mutation) were purchased from the Cell Bank of Shanghai Institute of Biochemistry and Cell Biology, Chinese Academy of Sciences, and cultured in an RPMI 1640 culture medium containing 1000 fetal bovine serum, 100 U penicillin and 100 μg/mL streptomycin. A cell viability was determined by a CellTiter-Glo® Luminescent Cell Viability Assay kit (Promega, article number G7573).
(§2) An experimental method was operated according to steps in the instruction of the kit, which was briefly described as follows: a test compound was dissolved in DMSO first to prepare a 10 mM stock solution, then the stock solution was diluted with the above RPMI 1640 culture medium to prepare a test sample, and a final concentration of the compound was in a range of 1000 nM-0.015 nM. Cells in a logarithmic growth phase were inoculated into a 96-well cell culture plate at a density of 1000 cells per well, cultured in a 5% CO2 incubator at 37° C. overnight, and then the test compound was added to continuously culture for 72 hours. After the culture was ended, 50 μL of CellTiter-Glo detection solution was added to each well, the plates were shaken for 5 minutes, and then allowed to stand for 10 minutes, and subsequently, a luminous value of each well of sample was read by a microplate reader in a Luminescence mode. By comparing with a numerical value of a control group (0.3% DMSO), a percentage inhibition rate of the compound at each concentration was calculated, and then nonlinear regression analysis was carried out based on concentration logarithm-inhibition rate of the compound in GraphPad Prism 5 software, so as to obtain an IC50 value of the compound in inhibition on cell proliferation, which are shown in Table 1.

HT-29 cells = assay: Inhibition on HT-29 cell proliferation (CellTiter-Glo); format: cell-based; conditions: Homo sapiens, HT-29 cells (TP53 R273H mutation), 120 hours
Experimental: as §1, with “HT-29” for “OVCAR-3”, “R273H” for “R248Q”, “a McCOY's 5A” for “an RPMI 1640”, “10%” for “1000”
as §2, with “McCOY's 5A” for “RPMI 1640”, “120” for “72”, “µL” for “μL”, “2.” for “1.”

[2] = system: OVCAR-3 human ovarian adenocarcinoma tumor fragment xenograft; assay: Pharmacodynamic testing in OVCAR-3 tumor fragment xenograft model; format: in vivo, BALB/c nude mice; conditions: 16 days after administration; for Tumor volume (x ± S): mean ± standard error, in mm³
Experimental: An anti-tumor effect of Compound 1 of the present invention in a BALB/c nude mouse animal model with subcutaneous OVCAR-3 human ovarian adenocarcinoma tumor fragment xenograft was evaluated.
BALB/c nude mice, female, 6-7 weeks old, purchased from Jiangsu Gempharmatech Biotechnology Co., Ltd.
Mice in a solvent control group were given DMA:CrEL:5% GS=10:10:80 (v:v:v).
AMG650: a proper amount of AMG-650 was weighed, proper amounts of DMA, CrEL and 5% GS were added in sequence, and the obtained system was evenly mixed by ultrasonic vortex to prepare 0.8 mg/mL and 0.4 mg/mL preparations respectively, wherein DMA, CrEL and 5% GS=10:10:80 (v:v:v).
Compound 1: a proper amount of Compound 1 was weighed, proper amounts of DMA, CrEL and 5% GS were added in sequence, and the obtained system was evenly mixed by ultrasonic vortex to prepare 0.8 mg/mL and 0.4 mg/mL preparations respectively, wherein DMA, CrEL and 5% GS=10:10:80 (v:v:v).
An appropriate OVCAR-3 tumor-bearing animal was selected, a 1 mm×1 mm×1 mm OVCAR-3 tumor fragment was acquired aseptically and placed into normal saline for later use, which was used for subcutaneous tumor inoculation in a right side of back of the BALB/c nude mice.
About 1 mm×1 mm×1 mm OVCAR-3 tumor fragment was subcutaneously inoculated in the right side of back of the female BALB/c nude mice. When an average tumor volume reached about 100-250 mm^3, the mice were randomly grouped according to the tumor size, with 6 mice in each group.
Animals in each group were given the test compound once per day according to an animal weight at a fixed time every day by oral administration (po), the animals started to be administered with the test compound for the first time on the day of grouping for 22 consecutive days, and the animal weight was recorded every day. • The 1st group (G1) was a solvent control group; • The 2nd group (G2) and the 3rd group (G3) were orally administered with AMG-650 at administration dosages of 8 mg/kg and 4 mg/kg respectively once per day (QD); and • The 4th group (G4) and the 5th group (G5) were orally administered with Compound 1 at administration dosages of 8 mg/kg and 4 mg/kg respectively once per day (QD).
Tumor formation at an inoculation site of the animals in each group was observed, and a tumor volume was measured twice per week, and calculated according to the following formula: • a tumor volume (TV), a relative tumor volume (RTV), a relative tumor proliferation rate (T/C) and a relative tumor inhibition rate (TGI) were calculated according to the following formulas:
TV (tumor volume)=½×a×b^2, wherein a and b respectively represented a tumor length and a tumor width; (1)
RTV (relative tumor volume)=Vt/V0, wherein V0 was a tumor volume measured at the time of grouping, and Vt was a tumor volume in each measurement; (2)
T/C (%)=TRTV/CRTV×100%, wherein TRTV was RTV of a treatment group, and CRTV was RTV of a solvent control group; and (3)
TGI %=(1−T/C)×100%, wherein T and C were relative tumor volumes of the treatment group and the solvent control group at a specific time point respectively. (4)

recombinant human KIF18A = target: T1, recombinant human KIF18A (Homo sapiens, UniProt Q8NI77); assay: Inhibition on KIF18A enzyme activity (ADP-Glo); format: biochemical; conditions: recombinant human KIF18A 100 nM, ATP 60 μM
T1 construct: purchased GenScript
Experimental: Inhibition degrees of the compounds of the present invention on recombinant human KIF18A enzyme activity in vitro were determined by the following method. An ADP-Glo™ Kinase Assay kit (article number V9102) from Promega Company was used in this method. Detailed experimental operation can be referred to the instruction of the kit.
The reaction was carried out in a 384-well microplate. The test compound and the recombinant human KIF18A protein (final concentration of 100 nM, entrusted to GenScript for expression) were added into the wells and incubated at room temperature for 20 minutes, and subsequently, ATP solution (component V915A from the ADP-Glo™ Kinase Assay kit, final concentration of 60 μM) was added to the reaction solution and the obtained system was incubated at room temperature for 20 minutes. Subsequently, 5 μL of ADP-Glo Reagent was added to the reaction system and the obtained system was incubated at room temperature for 50 minutes. Then, 10 μL of Kinase Detection Reagent was added to the reaction system, and the obtained system was incubated at room temperature for 30 minutes. After the incubation was ended, a chemiluminiscence intensity value of each well was determined by a microplate reader in a Luminescence mode.

T1 sequence (Q8NI77 whole entry): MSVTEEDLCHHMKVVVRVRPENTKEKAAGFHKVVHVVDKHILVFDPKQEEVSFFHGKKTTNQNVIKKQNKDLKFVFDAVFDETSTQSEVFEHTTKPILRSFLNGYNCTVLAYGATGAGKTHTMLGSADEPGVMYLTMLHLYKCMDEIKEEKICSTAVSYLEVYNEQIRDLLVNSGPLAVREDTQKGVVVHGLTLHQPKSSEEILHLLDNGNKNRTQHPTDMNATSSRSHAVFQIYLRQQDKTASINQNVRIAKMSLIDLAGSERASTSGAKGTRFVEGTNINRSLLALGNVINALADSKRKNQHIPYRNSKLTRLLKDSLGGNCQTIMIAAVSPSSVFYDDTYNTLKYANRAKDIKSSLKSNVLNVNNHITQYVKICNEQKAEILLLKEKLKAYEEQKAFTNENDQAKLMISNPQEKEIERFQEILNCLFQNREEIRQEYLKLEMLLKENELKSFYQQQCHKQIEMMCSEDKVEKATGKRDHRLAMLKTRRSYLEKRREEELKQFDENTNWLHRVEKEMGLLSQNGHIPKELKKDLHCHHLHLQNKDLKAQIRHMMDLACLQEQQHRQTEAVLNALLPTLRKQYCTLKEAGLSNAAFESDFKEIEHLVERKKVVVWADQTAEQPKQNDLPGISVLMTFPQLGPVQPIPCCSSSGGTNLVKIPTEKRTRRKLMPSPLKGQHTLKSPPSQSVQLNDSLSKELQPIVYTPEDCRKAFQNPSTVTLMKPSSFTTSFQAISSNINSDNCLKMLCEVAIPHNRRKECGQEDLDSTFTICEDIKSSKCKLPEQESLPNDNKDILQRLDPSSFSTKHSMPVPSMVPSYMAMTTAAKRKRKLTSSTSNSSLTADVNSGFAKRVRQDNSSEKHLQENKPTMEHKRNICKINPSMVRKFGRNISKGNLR
T1 sequence (P68363 whole entry partner): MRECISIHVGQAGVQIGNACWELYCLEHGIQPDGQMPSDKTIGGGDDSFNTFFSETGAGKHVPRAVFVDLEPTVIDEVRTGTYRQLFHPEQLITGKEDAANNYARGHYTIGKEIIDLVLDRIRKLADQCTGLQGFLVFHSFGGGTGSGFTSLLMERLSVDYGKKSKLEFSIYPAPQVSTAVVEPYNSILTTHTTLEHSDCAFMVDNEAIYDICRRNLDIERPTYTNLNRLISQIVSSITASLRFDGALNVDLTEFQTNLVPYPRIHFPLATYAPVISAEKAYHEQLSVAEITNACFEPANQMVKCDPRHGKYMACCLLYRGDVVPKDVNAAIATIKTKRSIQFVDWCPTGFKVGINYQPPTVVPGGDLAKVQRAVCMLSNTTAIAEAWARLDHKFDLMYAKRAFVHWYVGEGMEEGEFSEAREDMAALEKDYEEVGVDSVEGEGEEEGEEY
T1 sequence (Q9BVA1 whole entry partner): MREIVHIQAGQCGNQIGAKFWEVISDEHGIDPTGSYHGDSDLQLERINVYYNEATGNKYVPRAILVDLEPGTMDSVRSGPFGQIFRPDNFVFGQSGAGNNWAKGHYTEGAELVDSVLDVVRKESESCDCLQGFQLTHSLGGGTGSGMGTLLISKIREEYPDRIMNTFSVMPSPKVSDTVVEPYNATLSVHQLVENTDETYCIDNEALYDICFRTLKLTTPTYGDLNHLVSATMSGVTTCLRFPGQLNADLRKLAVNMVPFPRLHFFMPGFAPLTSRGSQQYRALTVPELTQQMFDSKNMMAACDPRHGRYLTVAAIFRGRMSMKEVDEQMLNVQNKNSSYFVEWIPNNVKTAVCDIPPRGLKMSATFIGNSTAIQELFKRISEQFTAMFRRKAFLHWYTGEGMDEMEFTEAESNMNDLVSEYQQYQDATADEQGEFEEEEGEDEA

SMILES | IC50 (OVCAR-3 cells) | IC50 (HT-29 cells) | IC50 (recombinant human KIF18A) | half-life [1] | Cmax [1] | AUC(0-inf) [1] | TGI ([2]; 4 mg/kg po QD) | Tumor volume (x ± S) ([2]; 4 mg/kg po QD) | TGI ([2]; 8 mg/kg po QD) | Tumor volume (x ± S) ([2]; 8 mg/kg po QD)
CCS(=O)(=O)Nc1ccc(C(=O)Nc2cc(N3CCC(F)(F)CC3)c3nn(C)cc3c2)c(N2CCC3(CC2)CC3)c1 [Example 18, N-(7-(4,4-difluoropiperidin-1-yl)-2-methyl-2H-indazol-5-yl)-4-(ethylsulfonamido)-2-(6-azaspiro[2.5]octan-6-yl)benzamide] | 3.3 nM | 7.7 nM |  | 5.2 h | 3030 ng/mL | 45900 ng·h/mL |  |  |  | 
Cc1cc(NC(=O)c2ccc(NS(=O)(=O)CCO)cc2N2CCC3(CC2)CC3)nc(N2CCC(F)(F)CC2)n1 [AMG 650, reference compound] |  |  |  |  |  |  | 15.3% | 511 ± 49 | 60.5% | 243 ± 35
O=C(Nc1cc2c(c(N3CCC(F)(F)CC3)c1)OCC2)c1ccc(NS(=O)(=O)CCO)cc1N1CCC2(CC1)CC2 [Example 29, N-(7-(4,4-difluoropiperidin-1-yl)-2,3-dihydrobenzofuran-5-yl)-4-((2-hydroxyethyl)sulfamine)-2-(6-azaspiro[2.5]octan-6-yl)benzamide] |  |  | 316 nM | 1.24 h | 6960 ng/mL | 25900 ng·h/mL |  |  |  | 
O=C(Nc1cc2c(c(N3CCC(F)(F)CC3)c1)OCC2)c1ccc(NS(=O)(=O)C2CC2)cc1N1CCC2(CC1)CC2 [Example 7, 4-(cyclopropanesulfonamido)-N-(7-(4,4-difluoropyridin-1-yl)-2,3-dihydrobenzofuran-5-yl)-2-(6-azaspiro[2.5]octan-6-yl)benzamide] | 11 nM | 7.8 nM | 157 nM |  |  |  |  |  |  | 

Second part, led by results:

IC50 (OVCAR-3 cells) | IC50 (HT-29 cells) | IC50 (recombinant human KIF18A) | SMILES | half-life [1] | Cmax [1] | AUC(0-inf) [1] | TGI ([2]; 4 mg/kg po QD) | Tumor volume (x ± S) ([2]; 4 mg/kg po QD) | TGI ([2]; 8 mg/kg po QD) | Tumor volume (x ± S) ([2]; 8 mg/kg po QD)
4.3 nM | 3.9 nM | 142 nM | CCS(=O)(=O)Nc1ccc(C(=O)Nc2cc3c(c(N4CCC(F)(F)CC4)c2)C(=O)N(C)C3)c(N2CCC3(CC2)CC3)c1 [Example 2, N-(7-(4,4-difluoropiperidin-1-yl)-2-methyl-1-oxoisoindolin-5-yl)-4-(ethylsulfonamido)-2-(6-azaspiro[2.5]octan-6-yl)benzamide] |  |  |  |  |  |  | 
6.8 nM | 18.9 nM | 142 nM | CN1Cc2cc(NC(=O)c3ccc(NS(=O)(=O)CCO)cc3N3CCC4(CC3)CC4)cc(N3CCC(F)(F)CC3)c2C1=O [Example 28, N-(7-(4,4-difluoropiperidin-1-yl)-2-methyl-1-oxoisoindolin-5-yl)-4-((2-hydroxyethyl)sulfamine)-2-(6-azaspiro[2.5]octan-6-yl)benzamide] |  |  |  |  |  |  | 
16.6 nM | 13.8 nM | 229 nM | CCS(=O)(=O)Nc1ccc(C(=O)Nc2cc(N3CCC(F)(F)CC3)c3[nH]ncc3c2)c(N2CCC3(CC2)CC3)c1 [Example 21, N-(7-(4,4-difluoropiperidin-1-yl)-1H-indazol-5-yl)-4-(ethylsulfonamido)-2-(6-azaspiro[2.5]octan-6-yl)benzamide] |  |  |  |  |  |  | 
